Where a name gives a salt, the structure may show the parent alone. Some results are limits rather than exact numbers.

T1 sequence (Q92918 whole entry): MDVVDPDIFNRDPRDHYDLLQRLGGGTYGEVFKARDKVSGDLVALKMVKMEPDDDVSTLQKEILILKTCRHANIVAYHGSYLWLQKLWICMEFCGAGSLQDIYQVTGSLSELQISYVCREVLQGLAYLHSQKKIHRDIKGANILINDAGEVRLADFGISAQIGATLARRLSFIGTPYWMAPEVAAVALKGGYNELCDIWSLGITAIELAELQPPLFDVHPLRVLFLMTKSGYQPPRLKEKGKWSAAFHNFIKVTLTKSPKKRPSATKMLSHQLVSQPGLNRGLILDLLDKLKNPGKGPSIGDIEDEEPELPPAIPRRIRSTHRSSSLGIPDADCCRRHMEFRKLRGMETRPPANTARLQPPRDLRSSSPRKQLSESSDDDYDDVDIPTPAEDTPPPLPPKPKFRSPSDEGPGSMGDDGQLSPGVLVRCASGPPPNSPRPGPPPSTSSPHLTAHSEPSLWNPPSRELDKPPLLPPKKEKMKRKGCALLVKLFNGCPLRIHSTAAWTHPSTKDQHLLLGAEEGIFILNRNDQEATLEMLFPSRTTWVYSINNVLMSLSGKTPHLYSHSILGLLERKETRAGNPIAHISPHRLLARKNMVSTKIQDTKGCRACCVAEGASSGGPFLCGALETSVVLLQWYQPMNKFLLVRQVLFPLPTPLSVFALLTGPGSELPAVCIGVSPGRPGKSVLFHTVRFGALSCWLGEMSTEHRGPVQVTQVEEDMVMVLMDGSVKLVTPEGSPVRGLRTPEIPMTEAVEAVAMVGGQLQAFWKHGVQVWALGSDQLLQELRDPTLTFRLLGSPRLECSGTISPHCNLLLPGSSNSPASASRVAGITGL

The assay concerns the target T1, human recombinant HPK1 (Homo sapiens, UniProt Q92918).
T1 construct: purchased BPS Bioscience
Briefly: Inhibitory activity against human recombinant HPK1 (TR-FRET). The assay is classed as biochemical. Conditions: ULight-p70S6K peptide, ATP at Km, room temperature, 1 hour, 0.32 to 1000 nM compound. In a few lines: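 Recombinant human HPK1 with ULight-p70S6K peptide and ATP at Km, 1 h at room temperature in HEPES pH 7.4 buffer with Mg2+, Mn2+, EGTA, DTT; compounds 0.32–1000 nM final. EDTA stop, Eu-anti-phosphopeptide TR-FRET read (665 nm); IC50 from % inhibition versus DMSO, binned A–D at 10, 50, 100 nM.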
(In general: In TR-FRET formats the signal depends on donor and acceptor labels being close together.)
As a reminder, the IC50 is the point on the concentration scale where inhibition reaches its midpoint. As for `COc1cccc(F)c1-c1nc(Nc2cc(N3CCC[C@H](O)C3)c(-c3cnn(C(F)F)c3)cn2)ccc1C(=O)N(C)C` [Example 141, 6-((5-(1-(difluoromethyl)-1H-pyrazol-4-yl)-4-((S)-3-hydroxypiperidin-1-yl)pyridin-2-yl)amino)-2-(2-fluoro-6-methoxyphenyl)-N,N-dimethylnicotinamide], the IC50 was more than 100 nM. The result for `COc1cccc(F)c1-c1nc(Nc2cc(N3CCC[C@H](O)C3)c(-c3cnn(C(F)F)c3)cn2)ccc1C(N)=O` [Example 142, 6-((5-(1-(difluoromethyl)-1H-pyrazol-4-yl)-4-((S)-3-hydroxypiperidin-1-yl)pyridin-2-yl)amino)-2-(2-fluoro-6-methoxyphenyl)nicotinamide] reads not above 10 nM. With `COc1cccc(F)c1-c1nc(Nc2cc(N3CCC[C@H](O)C3)c(-c3cnn(CC(F)(F)F)c3)cn2)ccc1C(N)=O` [Example 143, 2-(2-fluoro-6-methoxyphenyl)-6-((4-((S)-3-hydroxypiperidin-1-yl)-5-(1-(2,2,2-trifluoroethyl)-1H-pyrazol-4-yl)pyridin-2-yl)amino)nicotinamide] the figure was not above 10 nM; with `COCCn1cc(-c2cnc(Nc3ccc(C(N)=O)c(-c4c(F)cccc4OC)n3)cc2N2CCC[C@H](O)C2)cn1` [Example 144, 2-(2-fluoro-6-methoxyphenyl)-6-((4-((S)-3-hydroxypiperidin-1-yl)-5-(1-(2-methoxyethyl)-1H-pyrazol-4-yl)pyridin-2-yl)amino)nicotinamide], not above 10 nM. Take `COc1cccc(F)c1-c1nc(Nc2cc(N3CCC[C@H](O)C3)c(-c3cnn(C(F)F)c3)cn2)ccc1[N+](=O)[O-]` [Example 145, (3S)-1-(5-(1-(difluoromethyl)-1H-pyrazol-4-yl)-2-((6-(2-fluoro-6-methoxyphenyl)-5-nitropyridin-2-yl)amino)pyridin-4-yl)piperidin-3-ol]: the IC50 is not above 10 nM. The result for `COc1cccc(F)c1-c1nc(Nc2cc(N3CCC[C@H](N)C3)c(-c3cnn(C(F)F)c3)cn2)ccc1[N+](=O)[O-]` [Example 146, 4-((S)-3-aminopiperidin-1-yl)-5-(1-(difluoromethyl)-1H-pyrazol-4-yl)-N-(6-(2-fluoro-6-methoxyphenyl)-5-nitropyridin-2-yl)pyridin-2-amine hydrochloride] reads not above 10 nM. The result for `COc1cccc(F)c1-c1nccc(Nc2cc(N3CCC(CCN(C)C)CC3)c(-c3cnn(C(F)F)c3)cn2)n1` [Example 147, N-(5-(1-(difluoromethyl)-1H-pyrazol-4-yl)-4-(4-(2-(dimethylamino)ethyl)piperidin-1-yl)pyridin-2-yl)-2-(2-fluoro-6-methoxyphenyl)pyrimidin-4-amine] reads not above 10 nM. The result for `COc1cccc(F)c1-c1nccc(Nc2cc(N3CCC(CCN(C)C)CC3)c(-c3cnn(CC(F)(F)F)c3)cn2)n1` [Example 148, N-(4-(4-(2-(dimethylamino)ethyl)piperidin-1-yl)-5-(1-(2,2,2-trifluoroethyl)-1H-pyrazol-4-yl)pyridin-2-yl)-2-(2-fluoro-6-methoxyphenyl)pyrimidin-4-amine] reads not above 10 nM; that for `COc1cccc(F)c1-c1nccc(Nc2cc(N3CCC(CCN(C)C)CC3)c(-c3ccc(N4CCOCC4)nc3)cn2)n1` [Example 149, 4-(4-(2-(dimethylamino)ethyl)piperidin-1-yl)-N-(2-(2-fluoro-6-methoxyphenyl)pyrimidin-4-yl)-6′-morpholino-[3,3′-bipyridin]-6-amine], not above 10 nM; that for `COc1cccc(F)c1-c1nc(Nc2cc(N3CCC[C@H](O)C3)c(-c3cnn(C(F)F)c3)cn2)ccc1N` [Example 150, (3S)-1-(2-((5-amino-6-(2-fluoro-6-methoxyphenyl)pyridin-2-yl)amino)-5-(1-(difluoromethyl)-1H-pyrazol-4-yl)pyridin-4-yl)piperidin-3-ol], not above 10 nM. In the case of `COc1cccc(F)c1-c1nc(Nc2cc(N3CCC[C@H](N)C3)c(-c3cnn(C(F)F)c3)cn2)ccc1N` [Example 151, N^2-(4-((S)-3-aminopiperidin-1-yl)-5-(1-(difluoromethyl)-1H-pyrazol-4-yl)pyridin-2-yl)-6-(2-fluoro-6-methoxyphenyl)pyridin-2,5-diamine hydrochloride], the IC50 is not above 10 nM. `COc1cccc(F)c1-c1nc(Nc2cc(N3CCC[C@H](N)C3)c(-c3cnn(CC(F)F)c3)cn2)ccc1[N+](=O)[O-]` [Example 152, 4-((S)-3-aminopiperidin-1-yl)-5-(1-(2,2-difluoroethyl)-1H-pyrazol-4-yl)-N-(6-(2-fluoro-6-methoxyphenyl)-5-nitropyridin-2-yl)pyridin-2-amine hydrochloride]: the IC50 is not above 10 nM. With `COc1cccc(F)c1-c1nc(Nc2cc(N3CCC[C@H](N)C3)c(-c3cnn(CC(F)(F)F)c3)cn2)ccc1[N+](=O)[O-]` [Example 153, 4-((S)-3-aminopiperidin-1-yl)-N-(6-(2-fluoro-6-methoxyphenyl)-5-nitropyridin-2-yl)-5-(1-(2,2,2-trifluoroethyl)-1H-pyrazol-4-yl)pyridin-2-amine hydrochloride] the figure was not above 10 nM; with `COc1cccc(F)c1-c1nc(Nc2cc(N3CCC[C@H](N)C3)c(-c3cnn(C(F)(F)F)c3)cn2)ccc1[N+](=O)[O-]` [Example 154, 4-((S)-3-aminopiperidin-1-yl)-N-(6-(2-fluoro-6-methoxyphenyl)-5-nitropyridin-2-yl)-5-(1-(trifluoromethyl)-1H-pyrazol-4-yl)pyridin-2-amine hydrochloride], not above 10 nM; with `COc1cccc(F)c1-c1nc(Nc2cc(N3CCC[C@H](N)C3)c(C#CC3CCOCC3)cn2)ccc1[N+](=O)[O-]` [Example 155, 4-((S)-3-aminopiperidin-1-yl)-N-(6-(2-fluoro-6-methoxyphenyl)-5-nitropyridin-2-yl)-5-((tetrahydro-2H-pyran-4-yl)ethynyl)pyridin-2-amine hydrochloride], not above 10 nM.

For the compound `COc1cccc(F)c1-c1nc(Nc2cc(N3CCC[C@H](N)C3)c(C#Cc3cnn(C(F)(F)F)c3)cn2)ccc1[N+](=O)[O-]` [Example 156, 4-((S)-3-aminopiperidin-1-yl)-N-(6-(2-fluoro-6-methoxyphenyl)-5-nitropyridin-2-yl)-5-((1-(trifluoromethyl)-1H-pyrazol-4-yl)ethynyl)pyridin-2-amine hydrochloride], the IC50 was not above 10 nM.

Turning to `COc1cc(F)cc(F)c1-c1nccc(Nc2cc(N3CCC[C@H](N)C3)c(-c3cnn(C(F)(F)F)c3)cn2)n1` [Example 157, (S)-N-(4-(3-aminopiperidin-1-yl)-5-(1-(trifluoromethyl)-1H-pyrazol-4-yl)pyridin-2-yl)-2-(2,4-difluoro-6-methoxyphenyl)pyrimidin-4-amine hydrochloride], the IC50 was not above 10 nM.

For `COc1cc(F)cc(F)c1-c1nccc(Nc2cc(N3CCC[C@H](N)C3)c(-c3cnn(CC(F)F)c3)cn2)n1` [Example 158, (S)-N-(4-(3-aminopiperidin-1-yl)-5-(1-(2,2-difluoroethyl)-1H-pyrazol-4-yl)pyridin-2-yl)-2-(2,4-difluoro-6-methoxyphenyl)pyrimidin-4-amine hydrochloride], the IC50 was not above 10 nM.

(Values after patent US20260347338A1, “PYRIMIDINE/PYRIDINE DERIVATIVES OR SALTS THEREOF AND PHARMACEUTICAL COMPOSITIONS COMPRISING THE SAME” (YUHAN CORPORATION, priority 2023, published 2026).)
